Experimental data reported in ChEMBL document CHEMBL5338795, “Novel Triazoles with Potent and Broad-Spectrum Antifungal Activity In Vitro and In Vivo” (J Med Chem, 2023).
In brackets after ≈: the same amount, converted by molar mass. Each block holds one compound with its values, some of them ahead of it.

Columns and labels:
Format in all cases: functional
Candida albicans [1] = assay: Antifungal activity against Candida albicans SC5314 assessed as reduction in fungal growth incubated for 24 hrs by CLSI based microdilution analysis
[2] = tested on: Meyerozyma guilliermondii; assay: Antifungal activity against Meyerozyma guilliermondii ATCC 6260 assessed as reduction in fungal growth incubated for 24 hrs by CLSI based microdilution analysis
Candida parapsilosis = assay: Antifungal activity against Candida parapsilosis ATCC 22019 assessed as reduction in fungal growth incubated for 24 hrs by CLSI based microdilution analysis; conditions: Lodderomyces parapsilosis
Candida tropicalis = assay: Antifungal activity against Candida tropicalis ATCC 750 assessed as reduction in fungal growth incubated for 24 hrs by CLSI based microdilution analysis
Nakaseomyces glabratus = assay: Antifungal activity against Candida glabrata ATCC 15126 assessed as reduction in fungal growth incubated for 24 hrs by CLSI based microdilution analysis
Cryptococcus neoformans = assay: Antifungal activity against Cryptococcus neoformans CGMCC3 1563 assessed as reduction in fungal growth incubated for 72 hrs by CLSI based microdilution analysis
Aspergillus fumigatus = assay: Antifungal activity against Aspergillus fumigatus CGMCC3 7795 assessed as reduction in fungal growth incubated for 48 hrs by CLSI based microdilution analysis
Candida albicans [3] = assay: Antifungal activity against fluconazole-resistant Candida albicans 102 assessed as inhibition of fungal growth measured for 24 hrs by CLSI based microdilution analysis
Candida albicans [4] = assay: Antifungal activity against fluconazole-resistant Candida albicans 13 assessed as inhibition of fungal growth measured for 24 hrs by CLSI based microdilution analysis
Candida albicans [5] = assay: Antifungal activity against fluconazole-resistant Candida albicans 15 assessed as inhibition of fungal growth measured for 24 hrs by CLSI based microdilution analysis
Candida albicans [6] = assay: Antifungal activity against fluconazole-resistant Candida albicans 901 assessed as inhibition of fungal growth measured for 24 hrs by CLSI based microdilution analysis
Candida albicans [7] = assay: Antifungal activity against fluconazole-resistant Candida albicans 24D assessed as inhibition of fungal growth measured for 24 hrs by CLSI based microdilution analysis
Candida albicans [8] = assay: Antifungal activity against fluconazole-resistant Candida albicans 112869 assessed as inhibition of fungal growth measured for 24 hrs by CLSI based microdilution analysis

Structure (SMILES): COc1ccc(S(=O)(=O)N2CCN(CC(O)(Cn3cncn3)c3ccc(F)cc3F)CC2)cc1 (stereo not drawn)
MIC80 (Candida albicans [1]): 0.25 µg/mL (≈ 0.507 µM)

Structure (SMILES): OC(CN1CCN(CCCn2ccc3cc(Cl)ccc32)CC1)(Cn1cncn1)c1ccc(F)cc1F (stereo not drawn)
MIC80 (Candida albicans [1]): 0.031 µg/mL (≈ 0.0602 µM)
MIC80 [2]: 0.125 µg/mL (≈ 0.243 µM)
MIC80 (Candida parapsilosis): 0.062 µg/mL (≈ 0.12 µM)
MIC80 (Candida tropicalis): 0.625 µg/mL (≈ 1.21 µM)
MIC80 (Nakaseomyces glabratus): 0.312 µg/mL (≈ 0.606 µM)
MIC80 (Cryptococcus neoformans): 0.031 µg/mL (≈ 0.0602 µM)
MIC80 (Aspergillus fumigatus): 5 µg/mL (≈ 9.71 µM)
MIC80 (Candida albicans [3]): 0.062 µg/mL (≈ 0.12 µM)
MIC80 (Candida albicans [4]): 0.062 µg/mL (≈ 0.12 µM)
MIC80 (Candida albicans [5]): 2.5 µg/mL (≈ 4.85 µM)
MIC80 (Candida albicans [6]): 2.5 µg/mL (≈ 4.85 µM)
MIC80 (Candida albicans [7]): 0.062 µg/mL (≈ 0.12 µM)
MIC80 (Candida albicans [8]): 0.062 µg/mL (≈ 0.12 µM)

Structure (SMILES): COc1ccc2c(ccn2CCCN2CCN(CC(O)(Cn3cncn3)c3ccc(F)cc3F)CC2)c1 (stereo not drawn)
MIC80 (Candida albicans [1]): 0.062 µg/mL (≈ 0.121 µM)
MIC80 [2]: 0.125 µg/mL (≈ 0.245 µM)
MIC80 (Candida parapsilosis): 0.062 µg/mL (≈ 0.121 µM)
MIC80 (Candida tropicalis): 0.625 µg/mL (≈ 1.22 µM)
MIC80 (Nakaseomyces glabratus): 0.312 µg/mL (≈ 0.611 µM)
MIC80 (Cryptococcus neoformans): 0.125 µg/mL (≈ 0.245 µM)
MIC80 (Aspergillus fumigatus): 5 µg/mL (≈ 9.79 µM)
MIC80 (Candida albicans [3]): 0.062 µg/mL (≈ 0.121 µM)
MIC80 (Candida albicans [4]): 0.062 µg/mL (≈ 0.121 µM)
MIC80 (Candida albicans [5]): 0.625 µg/mL (≈ 1.22 µM)
MIC80 (Candida albicans [6]): 5 µg/mL (≈ 9.79 µM)
MIC80 (Candida albicans [7]): 0.125 µg/mL (≈ 0.245 µM)
MIC80 (Candida albicans [8]): 0.25 µg/mL (≈ 0.49 µM)

Structure (SMILES): O=C(c1cc2cc(Br)ccc2oc1=O)N1CCN(CC(O)(Cn2cncn2)c2ccc(F)cc2F)CC1 (stereo not drawn)
MIC80 (Candida albicans [1]): 0.125 µg/mL (≈ 0.218 µM)

Structure (SMILES): O=C(c1cccc2ccccc12)N1CCN(CC(O)(Cn2cncn2)c2ccc(F)cc2F)CC1 (stereo not drawn)
MIC80 (Candida albicans [1]): 0.25 µg/mL (≈ 0.524 µM)

Structure (SMILES): O=C(c1ccc2ncccc2c1)N1CCN(CC(O)(Cn2cncn2)c2ccc(F)cc2F)CC1 (stereo not drawn)
MIC80 (Candida albicans [1]): 0.125 µg/mL (≈ 0.261 µM)

Structure (SMILES): O=C(c1ccc2ccccc2c1)N1CCN(CC(O)(Cn2cncn2)c2ccc(F)cc2F)CC1 (stereo not drawn)
MIC80 (Candida albicans [1]): 0.062 µg/mL (≈ 0.13 µM)

Structure (SMILES): OC(CN1CCN(CCCn2ccc3ccccc32)CC1)(Cn1cncn1)c1ccc(F)cc1F (stereo not drawn)
MIC80 (Candida albicans [1]): 0.062 µg/mL (≈ 0.129 µM)
MIC80 [2]: 0.125 µg/mL (≈ 0.26 µM)
MIC80 (Candida parapsilosis): 0.125 µg/mL (≈ 0.26 µM)
MIC80 (Candida tropicalis): 0.625 µg/mL (≈ 1.3 µM)
MIC80 (Nakaseomyces glabratus): 0.625 µg/mL (≈ 1.3 µM)
MIC80 (Cryptococcus neoformans): 0.062 µg/mL (≈ 0.129 µM)
MIC80 (Aspergillus fumigatus): 10 µg/mL (≈ 20.8 µM)
MIC80 (Candida albicans [3]): 0.062 µg/mL (≈ 0.129 µM)
MIC80 (Candida albicans [4]): 0.062 µg/mL (≈ 0.129 µM)
MIC80 (Candida albicans [5]): 2.5 µg/mL (≈ 5.2 µM)
MIC80 (Candida albicans [6]): 5 µg/mL (≈ 10.4 µM)
MIC80 (Candida albicans [7]): 0.125 µg/mL (≈ 0.26 µM)
MIC80 (Candida albicans [8]): 0.062 µg/mL (≈ 0.129 µM)

Structure (SMILES): CCC(C)n1ncn(-c2ccc(N3CCN(c4ccc(OCC5COC(Cn6cncn6)(c6ccc(Cl)cc6Cl)O5)cc4)CC3)cc2)c1=O (stereo not drawn) [ITRACONAZOLE]
MIC80 (Candida albicans [1]): 0.062 µg/mL (≈ 0.0879 µM)
MIC80 [2]: 0.25 µg/mL (≈ 0.354 µM)
MIC80 (Candida parapsilosis): 0.25 µg/mL (≈ 0.354 µM)
MIC80 (Candida tropicalis): 0.625 µg/mL (≈ 0.886 µM)
MIC80 (Nakaseomyces glabratus): 0.625 µg/mL (≈ 0.886 µM)
MIC80 (Cryptococcus neoformans): 0.062 µg/mL (≈ 0.0879 µM)
MIC80 (Aspergillus fumigatus): 0.312 µg/mL (≈ 0.442 µM)
MIC80 (Candida albicans [3]): > 100 µg/mL
MIC80 (Candida albicans [4]): > 100 µg/mL
MIC80 (Candida albicans [5]): > 100 µg/mL
MIC80 (Candida albicans [6]): > 100 µg/mL
MIC80 (Candida albicans [7]): > 100 µg/mL
MIC80 (Candida albicans [8]): > 100 µg/mL

Structure (SMILES): O=[N+]([O-])c1ccc2c(ccn2CCN2CCN(CC(O)(Cn3cncn3)c3ccc(F)cc3F)CC2)c1 (stereo not drawn)
MIC80 (Candida albicans [1]): 0.031 µg/mL (≈ 0.0606 µM)
MIC80 [2]: 0.062 µg/mL (≈ 0.121 µM)
MIC80 (Candida parapsilosis): 0.062 µg/mL (≈ 0.121 µM)
MIC80 (Candida tropicalis): 0.312 µg/mL (≈ 0.61 µM)
MIC80 (Nakaseomyces glabratus): 0.312 µg/mL (≈ 0.61 µM)
MIC80 (Cryptococcus neoformans): 0.031 µg/mL (≈ 0.0606 µM)
MIC80 (Aspergillus fumigatus): 1.25 µg/mL (≈ 2.44 µM)
MIC80 (Candida albicans [3]): 0.031 µg/mL (≈ 0.0606 µM)
MIC80 (Candida albicans [4]): 0.062 µg/mL (≈ 0.121 µM)
MIC80 (Candida albicans [5]): 1.25 µg/mL (≈ 2.44 µM)
MIC80 (Candida albicans [6]): 1.25 µg/mL (≈ 2.44 µM)
MIC80 (Candida albicans [7]): 0.031 µg/mL (≈ 0.0606 µM)
MIC80 (Candida albicans [8]): 0.062 µg/mL (≈ 0.121 µM)

Structure (SMILES): O[C@](CN1CCN(CCn2ccc3cc(Br)ccc32)CC1)(Cn1cncn1)c1ccc(F)cc1F
MIC80 (Candida albicans [1]): 25 µg/mL (≈ 45.8 µM)

Continued, values first:

MIC80 (Candida albicans [1]): 0.25 µg/mL (≈ 0.489 µM)
Structure (SMILES): O=c1ccc2ccc(OCCN3CCN(CC(O)(Cn4cncn4)c4ccc(F)cc4F)CC3)cc2o1 (stereo not drawn)

MIC80 (Candida albicans [1]): 0.125 µg/mL (≈ 0.292 µM)
Structure (SMILES): OC(CN1CCN(CCc2ccccc2)CC1)(Cn1cncn1)c1ccc(F)cc1F (stereo not drawn)

MIC80 (Candida albicans [1]): 0.031 µg/mL (≈ 0.0624 µM)
Structure (SMILES): COc1ccc2c(ccn2CCN2CCN(CC(O)(Cn3cncn3)c3ccc(F)cc3F)CC2)c1 (stereo not drawn)

MIC80 (Candida albicans [1]): 0.5 µg/mL (≈ 0.821 µM)
Structure (SMILES): COc1ccc2c(ccn2CCCCCCCCCCN2CCN(CC(O)(Cn3cncn3)c3ccc(F)cc3F)CC2)c1 (stereo not drawn)

MIC80 (Candida albicans [1]): 0.062 µg/mL (≈ 0.133 µM)
Structure (SMILES): OC(CN1CCN(CCn2ccc3cccnc32)CC1)(Cn1cncn1)c1ccc(F)cc1F (stereo not drawn)

MIC80 (Candida albicans [1]): 0.062 µg/mL (≈ 0.124 µM)
Structure (SMILES): OC(CN1CCN(CCn2ccc3cc(Cl)cnc32)CC1)(Cn1cncn1)c1ccc(F)cc1F (stereo not drawn)

MIC80 (Candida albicans [1]): 0.125 µg/mL (≈ 0.232 µM)
Structure (SMILES): COc1ccc2c(ccn2CCCCCN2CCN(CC(O)(Cn3cncn3)c3ccc(F)cc3F)CC2)c1 (stereo not drawn)

MIC80 (Candida albicans [1]): 0.25 µg/mL (≈ 0.38 µM)
Structure (SMILES): OC(CN1CCN(CCCCCCCCCCn2ccc3cc(Br)ccc32)CC1)(Cn1cncn1)c1ccc(F)cc1F (stereo not drawn)

MIC80 (Candida albicans [1]): 0.031 µg/mL (≈ 0.0663 µM)
Structure (SMILES): O[C@@](CN1CCN(CCn2ncc3ccccc32)CC1)(Cn1cncn1)c1ccc(F)cc1F

MIC80 (Candida albicans [1]): 0.125 µg/mL (≈ 0.231 µM)
Structure (SMILES): OC(CN1CCN(CCCCCCn2ccc3ccc(F)cc32)CC1)(Cn1cncn1)c1ccc(F)cc1F (stereo not drawn)

MIC80 (Candida albicans [1]): 0.062 µg/mL (≈ 0.113 µM)
Structure (SMILES): OC(CN1CCN(CCn2ncc3cc(Br)ccc32)CC1)(Cn1cncn1)c1ccc(F)cc1F (stereo not drawn)

MIC80 (Candida albicans [1]): 0.125 µg/mL (≈ 0.245 µM)
Structure (SMILES): Cc1ccc2c(c1)C(=O)C(=O)N2CCN1CCN(CC(O)(Cn2cncn2)c2ccc(F)cc2F)CC1 (stereo not drawn)

MIC80 (Candida albicans [1]): 0.062 µg/mL (≈ 0.133 µM)
Structure (SMILES): OC(CN1CCN(CCn2ncc3ccccc32)CC1)(Cn1cncn1)c1ccc(F)cc1F (stereo not drawn)

MIC80 (Candida albicans [1]): 0.125 µg/mL (≈ 0.208 µM)
Structure (SMILES): OC(CN1CCN(CCCCCCn2ccc3cc(Br)ccc32)CC1)(Cn1cncn1)c1ccc(F)cc1F (stereo not drawn)

MIC80 (Candida albicans [1]): 0.125 µg/mL (≈ 0.256 µM)
Structure (SMILES): OC(CN1CCN(CCOc2ccc3c(c2)OCO3)CC1)(Cn1cncn1)c1ccc(F)cc1F (stereo not drawn)

MIC80 (Candida albicans [1]): 0.25 µg/mL (≈ 0.454 µM)
Structure (SMILES): OC(CN1CCN(CCn2c3ccccc3c3cc(Cl)ccc32)CC1)(Cn1cncn1)c1ccc(F)cc1F (stereo not drawn)

MIC80 (Candida albicans [1]): 0.062 µg/mL (≈ 0.108 µM)
Structure (SMILES): O=C1C(=O)N(CCN2CCN(CC(O)(Cn3cncn3)c3ccc(F)cc3F)CC2)c2ccc(Br)cc21 (stereo not drawn)
